Read-outs that look alike come from different tables or passages of the source.
Assays:
C1b domain of human PKCδ = target: T1, C1b domain of human PKCδ (Homo sapiens, UniProt Q05655); experiment: Competitive 3H-PDBu binding to C1b domain of PKCδ; conditions: 3H-PDBu competition
T1 construct: Genes encoding C1b domains of human PKCα, δ, ε, θ, and PKD1 (PKCμ) were synthesized; made in house; host or cells: E. coli BL21(DE3)
Method: (§1) Compounds described in this disclosure were tested for binding affinity to C1b domain of PKC isoforms. Compound binding affinity to C1b domain of PKC isoforms was derived from competitive binding assay using radioactive tracer ^3H-PDBu and recombinant GST-C1b or full-length of human PKC proteins based on modified procedures from Methods in Molecular Biology, vol.
(§2) Genes encoding C1b domains of human PKCα, δ, ε, θ, and PKD1 (PKCμ) were synthesized and inserted into pGEX-2TK or pGEX-4T1 vectors for expression and production of GST-C1b proteins in E. coli BL21(DE3) via IPTG induction. The target proteins were purified by glutathione sepharose 4B and followed by ion exchange chromatography if needed to achieve purity >70%. Aliquots of the purified proteins were stored at −80 degree for binding assay (storage buffer: 20 mM Tris pH 8.0, 200 mM NaCl, 10% glycerol, 1 mM DTT).
(§3) The plate was incubated at 37° C. on a shaker at 300 rpm for 10 minutes and then put on ice for 20 minutes. […] The bottom of the filter plate was sealed and 50 μL of MicroScint-20 (PerkinElmer) cocktail was added to each well. ^3H-PDBu trapped in each well was counted using PerkinElmer MicroBeta2 Reader. Data were analyzed using GraphPad Prism5 with the model “log(inhibitor) vs. response-variable slope” to fit the IC50, and then IC50 was transformed to Ki using Cheng-Prusoff equation: Ki=IC50/(1+added radio ligand/Kd). Kd is the binding affinity of each protein preparation to ^3H-PDBu, determined experimentally.

[1] = test system: A549 non-small cell lung cancer cell line; experiment: Proliferation of A549 (CellTiter Glo); type: cell-based; conditions: read-out: IC50 μM (A549 Cell Line)
Method: The diterpenoid compounds were tested in A549, a non-small cell lung cancer cell line harboring a K-Ras activating mutation. Briefly, A549 cells at a density of 1,000 cells/well were seeded in 96-well plates and incubated at 37° C. for 24 hours. A series of different concentrations of compound stocks (500×) were prepared by 3-fold serial dilution in DMSO. These compounds were further diluted in culture media and then added to cells so that the final DMSO concentration was not exceeding 0.25%. After 96 hours of incubation, 50 μL of CellTiter Glo reagent (Promega) was added to each well and luminescence was measured after 10 minutes using EnVision (PerkinElmer). Luminescence from cells treated with DMSO alone was set as Max and % of inhibition was calculated as follows: Inhibition %=(Max−Sample value)/Max×100. Data was analyzed using XL-fit software (ID Business Solutions Ltd.) and IC50, relative IC50, and % of top inhibition was calculated. Some of the compounds in this disclosure were very potent in blocking proliferation of A549 lung cancer cells at low nM range. In addition, potency of inhibiting A549 proliferation correlated well with its binding affinity to PKCs for this series of compounds. In other words, higher affinity binders had stronger inhibitory effects on A549 proliferation. This further support the notion that activation, rather than inhibition, of certain PKC isoforms is required to block proliferation of cancer cells, some of which may harbor K-Ras mutations. This is in sharp contrast to previous literature and common belief that inhibition of PKC is necessary to block cancer cell growth (Kang, 2014, New Journal of Science, 2014:1-36). Data presented here is in agreement with recent findings that many loss-of-function but not gain-of-function mutations of PKC isoforms have been identified in many human cancers (Antal et al., 2015, Cell, 160:489-502).

[2] = target: T2, C1b domain of human PKD1 (PKCμ) (Homo sapiens, UniProt Q15139); experiment: biochemical; type: binding
T2 construct: Genes encoding C1b domains of human PKCα, δ, ε, θ, and PKD1 (PKCμ) were synthesized; made in house; host or cells: E. coli BL21(DE3)
T2 sequence (Q15139 270-320 limits assumed): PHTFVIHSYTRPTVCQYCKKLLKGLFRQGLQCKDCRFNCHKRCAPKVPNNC
Method: as §1, §2, §3

C1b domain of human PKCθ = target: T3, C1b domain of human PKCθ (Homo sapiens, UniProt Q04759); experiment: Competitive 3H-PDBu binding to C1b domain of PKCθ
T3 construct: Genes encoding C1b domains of human PKCα, δ, ε, θ, and PKD1 (PKCμ) were synthesized; made in house; host or cells: E. coli BL21(DE3)
T3 sequence (Q04759 231-281 limits assumed): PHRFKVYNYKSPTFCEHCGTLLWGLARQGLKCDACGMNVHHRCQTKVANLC
Method: as §1, §2, §3

C1b domain of human PKCα = target: T4, C1b domain of human PKCα (Homo sapiens, UniProt P17252); experiment: biochemical; type: binding; conditions: 3H-PDBu competition
T4 construct: Genes encoding C1b domains of human PKCα, δ, ε, θ, and PKD1 (PKCμ) were synthesized; made in house; host or cells: E. coli BL21(DE3)
Method: as §1, §2
The plate was incubated at 37° C. on a shaker at 300 rpm for 10 minutes and then put on ice for 20 minutes. […] The bottom of the filter plate was sealed and 50 μL of MicroScint-20 (PerkinElmer) cocktail was added to each well. ^3H-PDBu trapped in each well was counted using PerkinElmer MicroBeta2 Reader. […] Kd is the binding affinity of each protein preparation to ^3H-PDBu, determined experimentally.

C1b domain of human PKCε = target: T5, C1b domain of human PKCε (Homo sapiens, UniProt Q02156); experiment: Competitive 3H-PDBu binding to C1b domain of PKCε
T5 construct: Genes encoding C1b domains of human PKCα, δ, ε, θ, and PKD1 (PKCμ) were synthesized; made in house; host or cells: E. coli BL21(DE3)
Method: as §1, §2, §3

[3] = A549, 96 hours incubation, CellTiter Glo

T1 sequence (Q05655 230-280 limits assumed): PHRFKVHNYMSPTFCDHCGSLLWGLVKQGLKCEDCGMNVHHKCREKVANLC
T5 sequence (Q02156 242-292 limits assumed): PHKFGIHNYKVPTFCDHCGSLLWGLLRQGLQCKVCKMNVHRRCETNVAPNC

Structure (SMILES)	Ki (C1b domain of human PKCδ; Ki PKCδ)	IC50 ([1]; Homo sapiens, A549, 96 h)	Ki [2]	Ki (C1b domain of human PKCα; Ki PKCα)	also measured
CC1=C[C@H]2[C@@]3(O)[C@H](C)C[C@]4(O)[C@H]([C@@H]3C=C(CO)C[C@]2(O)C1=O)C4(C)C [Compound K101-C13OH]	6000 to 8000 nM	> 30 µM	4000 to 6000 nM	> 8000 nM	Ki (C1b domain of human PKCθ): 2000 to 4000 nM; Ki (C1b domain of human PKCε): 2000 to 4000 nM
CC1=C[C@H]2[C@@]3(O)[C@H](C)C[C@]4(OC(=O)[C@H](N)CCCCCCc5ccc(C(F)F)cc5)[C@H]([C@@H]3C=C(CO)C[C@]2(O)C1=O)C4(C)C [Compound K101-C137001]	1 to 30 nM	0.1 to 0.2 µM	1 to 30 nM	800 to 1000 nM	Ki (C1b domain of human PKCθ): 30 to 60 nM; Ki (C1b domain of human PKCε): 30 to 60 nM
CC1=C[C@H]2[C@@]3(O)[C@H](C)C[C@]4(OC(=O)CC5CC6(CNC6)C5)[C@H]([C@@H]3C=C(CO)C[C@]2(O)C1=O)C4(C)C [Compound K101-C1306]	100 to 200 nM	> 30 µM	1 to 30 nM	1000 to 2000 nM	Ki (C1b domain of human PKCθ): 100 to 200 nM; Ki (C1b domain of human PKCε): 200 to 400 nM
CCCCCCCCCCCCCC(=O)O[C@@H]1[C@@H](C)[C@@]2(O)[C@@H](C=C(CO)C[C@]3(O)C(=O)C(C)=C[C@@H]23)[C@@H]2C(C)(C)[C@]12OC(C)=O [Compound K103, 12-O-Tetradecanoylphorbol-13-acetate, reference compound]	–	–	–	–	Ki (C1b domain of human PKCδ; read-out: Ki PKCδ): < 5 nM; IC50 [1, 3]: < 0.001 µM; Ki ([2]; C1b domain of human PKD1 (PKCμ), 3H-PDBu competition, read-out: Ki PKD1/PKCμ): < 5 nM; Ki (C1b domain of human PKCθ; C1b domain of human PKCθ, 3H-PDBu competition, read-out: Ki PKCθ): < 5 nM; Ki (C1b domain of human PKCε; C1b domain of human PKCε, 3H-PDBu competition, read-out: Ki PKCε): < 5 nM
CC1=C[C@H]2[C@@]3(O)[C@H](C)C[C@]4(OC(=O)[C@@H](N)C/C=C/c5ccccc5)[C@H]([C@@H]3C=C(CO)C[C@]2(O)C1=O)C4(C)C [Compound K101-C1331]	–	–	–	–	Ki (C1b domain of human PKCδ; read-out: Ki PKCδ): 5 to 10 nM; IC50 [1, 3]: 0.06 to 0.1 µM; Ki ([2]; read-out: Ki PKD1/PKCμ): < 5 nM; Ki (C1b domain of human PKCα; read-out: Ki PKCα): 100 to 200 nM
CSCC[C@H](N)C(=O)O[C@@]12C[C@@H](C)[C@@]3(O)[C@@H](C=C(CO)C[C@]4(O)C(=O)C(C)=C[C@@H]34)[C@@H]1C2(C)C [Compound K101-C1338]	100 to 200 nM	5 to 10 µM	30 to 60 nM	2000 to 4000 nM	–
CC1=C[C@H]2[C@@]3(O)[C@H](C)C[C@]4(OC(=O)CCc5cnn(C)c5)[C@H]([C@@H]3C=C(CO)C[C@]2(O)C1=O)C4(C)C [Compound K101-C1323]	200 to 400 nM	2 to 5 µM	100 to 200 nM	> 8000 nM	–
CC1=C[C@H]2[C@@]3(O)[C@H](C)C[C@]4(OC(=O)[C@H](N)CCCCCCc5ccc(C(F)(F)F)cc5)[C@H]([C@@H]3C=C(CO)C[C@]2(O)C1=O)C4(C)C [Compound K101-C135901]	30 to 60 nM	0.06 to 0.1 µM	1 to 30 nM	1000 to 2000 nM	Ki (C1b domain of human PKCθ): 30 to 60 nM
CC1=C[C@H]2[C@@]3(O)[C@H](C)C[C@]4(OC(=O)[C@H](N)Cc5c[nH]c6ccccc56)[C@H]([C@@H]3C=C(CO)C[C@]2(O)C1=O)C4(C)C [Compound K101-C1341]	30 to 60 nM	10 to 30 µM	1 to 30 nM	1000 to 2000 nM	–
CC1=C[C@H]2[C@@]3(O)[C@H](C)C[C@]4(OC(=O)C[C@@H](N)CCc5ccccc5)[C@H]([C@@H]3C=C(CO)C[C@]2(O)C1=O)C4(C)C [Compound K101-C1350]	1 to 30 nM	0.6 to 1 µM	< 5 nM	400 to 800 nM	–
CC1=C[C@H]2[C@@]3(O)[C@H](C)C[C@]4(OC(=O)CCCCCCCCCCC(=O)O)[C@H]([C@@H]3C=C(CO)C[C@]2(O)C1=O)C4(C)C [Compound K101-C1334]	400 to 800 nM	10 to 30 µM	30 to 60 nM	> 8000 nM	–
CC1=C[C@H]2[C@@]3(O)[C@H](C)C[C@]4(OC(=O)CCc5scnc5C)[C@H]([C@@H]3C=C(CO)C[C@]2(O)C1=O)C4(C)C [Compound K101-C1320]	30 to 60 nM	0.2 to 0.6 µM	1 to 30 nM	2000 to 4000 nM	–
CC1=C[C@H]2[C@@]3(O)[C@H](C)C[C@]4(OC(=O)[C@H](CC5CCCCC5)N(C)C)[C@H]([C@@H]3C=C(CO)C[C@]2(O)C1=O)C4(C)C [Compound K101-C1365]	100 to 200 nM	0.6 to 1 µM	30 to 60 nM	4000 to 6000 nM	–
CC1=C[C@H]2[C@@]3(O)[C@H](C)C[C@]4(OC(=O)[C@H](N)CCc5ccc(C(F)(F)F)cc5)[C@H]([C@@H]3C=C(CO)C[C@]2(O)C1=O)C4(C)C [Compound K101-C135601]	30 to 60 nM	0.2 to 0.6 µM	1 to 30 nM	1000 to 2000 nM	–
CC1=C[C@H]2[C@@]3(O)[C@H](C)C[C@]4(OC(=O)C[C@@H](N)Cc5ccccc5)[C@H]([C@@H]3C=C(CO)C[C@]2(O)C1=O)C4(C)C [Compound K101-C1344]	30 to 60 nM	1 to 2 µM	1 to 30 nM	1000 to 2000 nM	–
CC1=C[C@H]2[C@@]3(O)[C@H](C)C[C@]4(OC(=O)C[C@@H](N)c5ccccc5)[C@H]([C@@H]3C=C(CO)C[C@]2(O)C1=O)C4(C)C [Compound K101-C1357]	200 to 400 nM	2 to 5 µM	30 to 60 nM	> 8000 nM	–
CC1=C[C@H]2[C@@]3(O)[C@H](C)C[C@]4(OC(=O)CCc5c[nH]c6ncccc56)[C@H]([C@@H]3C=C(CO)C[C@]2(O)C1=O)C4(C)C [Compound K101-C1322]	30 to 60 nM	2 to 5 µM	5 to 10 nM	800 to 1000 nM	–
CC1=C[C@H]2[C@@]3(O)[C@H](C)C[C@]4(OC(=O)C(Cc5ccccc5)C(=O)O)[C@H]([C@@H]3C=C(CO)C[C@]2(O)C1=O)C4(C)C (some centres unmarked) [Compound K101-C1353]	400 to 800 nM	1 to 2 µM	4000 to 6000 nM	> 8000 nM	–

From US20220411362A1, “DITERPENOID COMPOUNDS THAT ACT ON PROTEIN KINASE C (PKC)” (K-Gen, Inc., priority 2019, published 2022)
